In US20260266803A1, “Induced Pluripotent Stem Cell Model of Fibrous Dysplasia/Mccune-Albright Syndrome and Methods of Use” (The Regents of the University of California, priority 2023, published 2026):

Test system: GNAS^R201H iPSCs
Experiment: cAMP in iPSCs stimulated with the β-adrenergic receptor agonist isoproterenol
Type: cell-based, human
Details: 10 μM isoproterenol, N=6 in two different iPSC lines
Procedure: FIGS. 3A-3C. […] Representative of n=3. (FIG. 3B) Representative western blot of pluripotent and differentiated (DDX) iPSCs showing increased pCREB and pATF1, consistent with activation of the cAMP pathway. […] N=6 in two different iPSC lines.
Initial screens with a single dose (50 μM) in our GNAS iPSCs identified several compounds with potential as molecular tools ([…].B). We found candidates that inhibited Gsα^R201H but not WT (#46, 47, 43, 2). […] While not desirable for treating FD/MAS or GNAS hyperactivation, these may be useful for treating diseases of GNAS loss of function (e.g., Albright's hereditary osteodystrophy).

## CC(C)NCC(O)c1ccc(O)c(O)c1 (stereo not shown) [isoproterenol]
  differences in cAMP from baseline: increased differences in cAMP from baseline
